Activity calls are given as the source filed them. The calls are words filed in the database; no cut-off is given here.
Assays:
[1] = target: T1, Toll-like receptor 8 (Homo sapiens) (UniProt Q9NR97); test: Activation of human TLR8 expressed in HEK293 cells assessed as increase in NF-kappaB activation at 100 ug/ml by SEAP assay; type: cell-based
T1 sequence (whole entry): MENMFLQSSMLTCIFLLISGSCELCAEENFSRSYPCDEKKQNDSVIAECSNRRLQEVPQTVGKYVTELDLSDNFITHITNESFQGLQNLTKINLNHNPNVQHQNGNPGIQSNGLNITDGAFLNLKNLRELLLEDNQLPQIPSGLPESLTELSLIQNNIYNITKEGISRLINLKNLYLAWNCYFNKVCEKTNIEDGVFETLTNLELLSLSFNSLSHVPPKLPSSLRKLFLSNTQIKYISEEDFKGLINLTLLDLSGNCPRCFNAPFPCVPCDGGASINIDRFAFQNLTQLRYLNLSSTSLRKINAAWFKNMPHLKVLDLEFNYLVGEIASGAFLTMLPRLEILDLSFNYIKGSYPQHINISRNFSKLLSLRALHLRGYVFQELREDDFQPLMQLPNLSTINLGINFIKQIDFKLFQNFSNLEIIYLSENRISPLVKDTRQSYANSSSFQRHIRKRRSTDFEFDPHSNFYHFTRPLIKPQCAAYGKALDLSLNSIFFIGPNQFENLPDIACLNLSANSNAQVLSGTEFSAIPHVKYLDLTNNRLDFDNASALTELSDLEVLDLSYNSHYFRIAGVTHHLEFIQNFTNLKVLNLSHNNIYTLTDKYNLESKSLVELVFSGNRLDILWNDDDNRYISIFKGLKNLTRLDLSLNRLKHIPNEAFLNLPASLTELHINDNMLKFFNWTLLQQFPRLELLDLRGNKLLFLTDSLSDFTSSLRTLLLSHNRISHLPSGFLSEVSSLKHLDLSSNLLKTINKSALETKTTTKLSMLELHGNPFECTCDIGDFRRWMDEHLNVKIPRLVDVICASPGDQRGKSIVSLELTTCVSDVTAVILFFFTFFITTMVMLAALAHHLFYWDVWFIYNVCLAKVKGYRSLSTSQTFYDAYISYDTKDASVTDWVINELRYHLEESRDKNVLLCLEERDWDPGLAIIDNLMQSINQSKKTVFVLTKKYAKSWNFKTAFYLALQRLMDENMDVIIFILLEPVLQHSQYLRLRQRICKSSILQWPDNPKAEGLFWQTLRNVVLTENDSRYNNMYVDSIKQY

[2] = Stability in 1% human serum assessed as full length product after 10 mins; type: ADME, cell-free; conditions: read-out: Stability
[3] = target: T2, Toll-like receptor 7 (Homo sapiens) (UniProt Q9NYK1); test: Activation of human TLR7 expressed in HEK293 cells assessed as increase in NF-kappaB activation at 100 ug/ml by SEAP assay; type: cell-based
T2 sequence (whole entry): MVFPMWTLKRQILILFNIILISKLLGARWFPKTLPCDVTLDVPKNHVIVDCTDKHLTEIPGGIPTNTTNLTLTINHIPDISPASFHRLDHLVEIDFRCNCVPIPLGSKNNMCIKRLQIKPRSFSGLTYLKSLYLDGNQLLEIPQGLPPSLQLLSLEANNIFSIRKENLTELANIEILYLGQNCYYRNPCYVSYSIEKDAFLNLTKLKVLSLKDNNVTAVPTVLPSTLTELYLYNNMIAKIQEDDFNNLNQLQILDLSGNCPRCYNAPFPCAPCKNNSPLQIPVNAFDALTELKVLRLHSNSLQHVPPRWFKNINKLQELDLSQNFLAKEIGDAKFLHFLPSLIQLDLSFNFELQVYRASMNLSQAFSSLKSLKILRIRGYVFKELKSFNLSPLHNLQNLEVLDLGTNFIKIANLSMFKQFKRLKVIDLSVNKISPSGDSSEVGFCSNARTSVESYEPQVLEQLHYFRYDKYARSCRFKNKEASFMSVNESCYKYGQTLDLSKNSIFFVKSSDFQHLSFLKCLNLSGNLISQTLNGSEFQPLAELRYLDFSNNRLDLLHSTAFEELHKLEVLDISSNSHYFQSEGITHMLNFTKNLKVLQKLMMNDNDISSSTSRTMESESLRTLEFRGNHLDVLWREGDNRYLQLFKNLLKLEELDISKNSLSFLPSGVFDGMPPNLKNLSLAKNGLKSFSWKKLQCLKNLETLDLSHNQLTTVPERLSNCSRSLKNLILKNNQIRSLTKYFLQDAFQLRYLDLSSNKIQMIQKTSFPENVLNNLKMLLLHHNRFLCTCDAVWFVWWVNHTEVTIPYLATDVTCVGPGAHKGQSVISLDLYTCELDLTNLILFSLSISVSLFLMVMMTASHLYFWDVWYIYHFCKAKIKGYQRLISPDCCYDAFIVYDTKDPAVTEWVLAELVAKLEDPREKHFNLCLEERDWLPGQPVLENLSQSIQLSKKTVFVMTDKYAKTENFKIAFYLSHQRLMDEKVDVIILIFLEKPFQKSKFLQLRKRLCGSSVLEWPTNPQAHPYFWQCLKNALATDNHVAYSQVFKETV

| Activity [1] | remaining at 10 min [2] | Activity [3] | SMILES |
| --- | --- | --- | --- |
| Active | 94% | inactive | Nc1nc2c(ncn2[C@@H]2O[C@H](COP(O)(=S)O[C@H]3[C@@H](O)[C@H](n4ccc(=O)[nH]c4=O)O[C@@H]3COP(O)(=S)O[C@H]3[C@@H](O)[C@H](n4ccc(=O)[nH]c4=O)O[C@@H]3COP(O)(=S)O[C@H]3[C@@H](O)[C@H](n4ccc(=O)[nH]c4=O)O[C@@H]3COP(O)(=S)O[C@H]3[C@@H](O)[C@H](n4cnc5c(=O)[nH]c(N)nc54)O[C@@H]3COP(O)(=S)O[C@H]3[C@@H](O)[C@H](n4ccc(=O)[nH]c4=O)O[C@@H]3COP(O)(=S)O[C@H]3[C@@H](O)[C@H](n4ccc(=O)[nH]c4=O)O[C@@H]3COP(O)(=S)O[C@H]3[C@@H](O)[C@H](n4cnc5c(=O)[nH]c(N)nc54)O[C@@H]3COP(O)(=S)O[C@H]3[C@@H](O)[C@H](n4cnc5c(=O)[nH]c(N)nc54)O[C@@H]3COP(O)(=S)O[C@H]3[C@@H](O)[C@H](n4ccc(=O)[nH]c4=O)O[C@@H]3COP(O)(=S)O[C@H]3[C@@H](O)[C@H](n4ccc(=O)[nH]c4=O)O[C@@H]3CO)[C@@H](OP(O)(=S)OCC(O)COP(O)(=S)O[C@H]3[C@@H](O)[C@H](n4cnc5c(=O)[nH]c(N)nc54)O[C@@H]3COP(O)(=S)O[C@H]3[C@@H](O)[C@H](n4ccc(=O)[nH]c4=O)O[C@@H]3COP(O)(=S)O[C@H]3[C@@H](O)[C@H](n4ccc(=O)[nH]c4=O)O[C@@H]3COP(O)(=S)O[C@H]3[C@@H](O)[C@H](n4ccc(=O)[nH]c4=O)O[C@@H]3COP(O)(=S)O[C@H]3[C@@H](O)[C@H](n4cnc5c(=O)[nH]c(N)nc54)O[C@@H]3COP(O)(=S)O[C@H]3[C@@H](O)[C@H](n4ccc(=O)[nH]c4=O)O[C@@H]3COP(O)(=S)O[C@H]3[C@@H](O)[C@H](n4ccc(=O)[nH]c4=O)O[C@@H]3COP(O)(=S)O[C@H]3[C@@H](O)[C@H](n4cnc5c(=O)[nH]c(N)nc54)O[C@@H]3COP(O)(=S)O[C@H]3[C@@H](O)[C@H](n4cnc5c(=O)[nH]c(N)nc54)O[C@@H]3COP(O)(=S)O[C@H]3[C@@H](O)[C@H](n4ccc(=O)[nH]c4=O)O[C@@H]3COP(O)(=S)O[C@H]3[C@@H](O)[C@H](n4ccc(=O)[nH]c4=O)O[C@@H]3CO)[C@H]2O)c(=O)[nH]1 (some centres undefined) |
| Active | 82% | inactive | Nc1ccn([C@@H]2O[C@H](COP(O)(=S)O[C@H]3[C@@H](O)[C@H](n4cnc5c(=O)[nH]c(N)nc54)O[C@@H]3COP(O)(=S)O[C@H]3[C@@H](O)[C@H](n4ccc(=O)[nH]c4=O)O[C@@H]3COCCCCCO)[C@@H](OP(O)(=S)OC[C@H]3O[C@@H](n4ccc(=O)[nH]c4=O)[C@H](O)[C@@H]3OP(O)(=S)OC[C@H]3O[C@@H](n4cnc5c(=O)[nH]c(N)nc54)[C@H](O)[C@@H]3OP(O)(=S)OC[C@H]3O[C@@H](n4ccc(N)nc4=O)[C@H](O)[C@@H]3OP(O)(=S)OC[C@H]3O[C@@H](n4ccc(=O)[nH]c4=O)[C@H](O)[C@@H]3OP(O)(=S)OC[C@H]3O[C@@H](n4ccc(=O)[nH]c4=O)[C@H](O)[C@@H]3OP(O)(=S)OC[C@H]3O[C@@H](n4cnc5c(=O)[nH]c(N)nc54)[C@H](O)[C@@H]3OP(O)(=S)OC[C@H]3O[C@@H](n4ccc(=O)[nH]c4=O)[C@H](O)[C@@H]3OP(O)(=S)OC[C@H]3O[C@@H](n4cnc5c(=O)[nH]c(N)nc54)[C@H](O)[C@@H]3OP(O)(=S)OCC(O)COP(O)(=S)O[C@H]3[C@@H](O)[C@H](n4cnc5c(=O)[nH]c(N)nc54)O[C@@H]3COP(O)(=S)O[C@H]3[C@@H](O)[C@H](n4ccc(=O)[nH]c4=O)O[C@@H]3COP(O)(=S)O[C@H]3[C@@H](O)[C@H](n4cnc5c(=O)[nH]c(N)nc54)O[C@@H]3COP(O)(=S)O[C@H]3[C@@H](O)[C@H](n4ccc(=O)[nH]c4=O)O[C@@H]3COP(O)(=S)O[C@H]3[C@@H](O)[C@H](n4ccc(=O)[nH]c4=O)O[C@@H]3COP(O)(=S)O[C@H]3[C@@H](O)[C@H](n4ccc(N)nc4=O)O[C@@H]3COP(O)(=S)O[C@H]3[C@@H](O)[C@H](n4cnc5c(=O)[nH]c(N)nc54)O[C@@H]3COP(O)(=S)O[C@H]3[C@@H](O)[C@H](n4ccc(=O)[nH]c4=O)O[C@@H]3COP(O)(=S)O[C@H]3[C@@H](O)[C@H](n4ccc(N)nc4=O)O[C@@H]3COP(O)(=S)O[C@H]3[C@@H](O)[C@H](n4cnc5c(=O)[nH]c(N)nc54)O[C@@H]3COP(O)(=S)O[C@H]3[C@@H](O)[C@H](n4ccc(=O)[nH]c4=O)O[C@@H]3COCCCCCO)[C@H]2O)c(=O)n1 (some centres undefined) |
| Active | 66% | inactive | Nc1ccn([C@@H]2O[C@H](COP(O)(=S)O[C@H]3[C@@H](O)[C@H](n4ccc(N)nc4=O)O[C@@H]3COP(O)(=S)O[C@H]3[C@@H](O)[C@H](n4cnc5c(=O)[nH]c(N)nc54)O[C@@H]3COP(O)(=S)O[C@H]3[C@@H](O)[C@H](n4ccc(=O)[nH]c4=O)O[C@@H]3COP(O)(=S)O[C@H]3[C@@H](O)[C@H](n4ccc(N)nc4=O)O[C@@H]3COP(O)(=S)O[C@H]3[C@@H](O)[C@H](n4cnc5c(=O)[nH]c(N)nc54)O[C@@H]3COP(O)(=S)O[C@H]3[C@@H](O)[C@H](n4ccc(=O)[nH]c4=O)O[C@@H]3CO)[C@@H](OP(O)(=S)OC[C@H]3O[C@@H](n4ccc(=O)[nH]c4=O)[C@H](O)[C@@H]3OP(O)(=S)OC[C@H]3O[C@@H](n4ccc(=O)[nH]c4=O)[C@H](O)[C@@H]3OP(O)(=S)OC[C@H]3O[C@@H](n4ccc(=O)[nH]c4=O)[C@H](O)[C@@H]3OP(O)(=S)OC[C@H]3O[C@@H](n4cnc5c(=O)[nH]c(N)nc54)[C@H](O)[C@@H]3OP(O)(=S)OCC(O)COP(O)(=S)O[C@H]3[C@@H](O)[C@H](n4cnc5c(=O)[nH]c(N)nc54)O[C@@H]3COP(O)(=S)O[C@H]3[C@@H](O)[C@H](n4ccc(=O)[nH]c4=O)O[C@@H]3COP(O)(=S)O[C@H]3[C@@H](O)[C@H](n4ccc(=O)[nH]c4=O)O[C@@H]3COP(O)(=S)O[C@H]3[C@@H](O)[C@H](n4ccc(=O)[nH]c4=O)O[C@@H]3COP(O)(=S)O[C@H]3[C@@H](O)[C@H](n4ccc(N)nc4=O)O[C@@H]3COP(O)(=S)O[C@H]3[C@@H](O)[C@H](n4ccc(N)nc4=O)O[C@@H]3COP(O)(=S)O[C@H]3[C@@H](O)[C@H](n4cnc5c(=O)[nH]c(N)nc54)O[C@@H]3COP(O)(=S)O[C@H]3[C@@H](O)[C@H](n4ccc(=O)[nH]c4=O)O[C@@H]3COP(O)(=S)O[C@H]3[C@@H](O)[C@H](n4ccc(N)nc4=O)O[C@@H]3COP(O)(=S)O[C@H]3[C@@H](O)[C@H](n4cnc5c(=O)[nH]c(N)nc54)O[C@@H]3COP(O)(=S)O[C@H]3[C@@H](O)[C@H](n4ccc(=O)[nH]c4=O)O[C@@H]3CO)[C@H]2O)c(=O)n1 (some centres undefined) |
